Each block holds one compound with its values, some of them ahead of it.
Experiments:
[1] = test system: 16T (upper small loop without 16th thymine) (DNA, aptamer) AACGGTTTGATCTCCTCGTG; assay: ThT displacement fluorescence; conditions: pH 7.5; 400 nM aptamer, 10 μM thioflavin T; up to 50 μM
[2] = test system: PFOS_JYP_2 (DNA, aptamer) CTCTCGGGACGACGGGGTAACGGTTTGATCTCCTTCGTGTTCTGTCGTCCC; assay: ThT displacement fluorescence; conditions: pH 7.5; 400 nM aptamer, 10 μM thioflavin T; up to 50 μM
[3] = test system: PFOS_JYP_6 (DNA, aptamer) CTCTCGGGACGACGGCAGCTCAGCATCTTTGTTGCCCCTGACTGTCGTCCC; assay: ThT displacement fluorescence, Hill fit; conditions: pH 7.5, RT, 70 min; 400 nM aptamer; 10 μM thioflavin T displaced
[4] = test system: PFOS_JYP_6 (72 nt, qPCR) (DNA, aptamer) GGAGGCTCTCGGGACGACGGCAGCTCAGCATCTTTGTTGCCCCTGACTGTCGTCCCGATGCTGCAATCGTAA; assay: qPCR Ct change of aptamer-gold nanoparticle complex; conditions: Mg2+ 2 mM (PBS); 1x PBS, pH 7.5; 100 pmol aptamer; 0-400 pM PFOS
[5] = test system: PFOS_JYP_2 upper loop, ninth guanine mutated to cytosine (DNA, aptamer) AACGGTTTCATCTCCTTCGTG; assay: ThT displacement fluorescence, Hill fit; conditions: pH 7.5, RT, 70 min; 400 nM aptamer; 10 μM thioflavin T displaced
[6] = test system: 7T (upper small loop without 7th thymine) (DNA, aptamer) AACGGTTGATCTCCTTCGTG; assay: ThT displacement fluorescence, Hill fit; conditions: pH 7.5, RT, 70 min; 400 nM aptamer; 10 μM thioflavin T displaced
[7] = test system: 9G (upper small loop without 9th guanine) (DNA, aptamer) AACGGTTTATCTCCTTCGTG; assay: ThT displacement fluorescence, Hill fit; conditions: pH 7.5, RT, 70 min; 400 nM aptamer; 10 μM thioflavin T displaced
[8] = test system: 9G, 16T (DNA, aptamer) AACGGTTTATCTCCTCGTG; assay: ThT displacement fluorescence, Hill fit; conditions: pH 7.5, RT, 70 min; 400 nM aptamer; 10 μM thioflavin T displaced
[9] = test system: 15C (upper small loop without 15th cytosine) (DNA, aptamer) AACGGTTTGATCTCTTCGTG; assay: ThT displacement fluorescence, Hill fit; conditions: pH 7.5, RT, 70 min; 400 nM aptamer; 10 μM thioflavin T displaced
[10] = test system: 10A, 16T (DNA, aptamer) AACGGTTTGTCTCCTCGTG; assay: ThT displacement fluorescence, Hill fit; conditions: pH 7.5, RT, 70 min; 400 nM aptamer; 10 μM thioflavin T displaced
[11] = test system: PFOS_JYP_5 (DNA, aptamer) CTCTCGGGACGACGGCCAGATGGAGCTTTTATTTCCCTTCCTCGTCGTCCC; assay: ThT displacement fluorescence, Hill fit; conditions: pH 7.5, RT, 70 min; 400 nM aptamer; 10 μM thioflavin T displaced
[12] = test system: PFOS_JYP_1 (DNA, aptamer) CTCTCGGGACGACGGGTAGTCTGTGTATGCTCGCAAGCGTGCTGTCGTCCC; assay: ThT displacement fluorescence, Hill fit; conditions: pH 7.5, RT, 70 min; 400 nM aptamer; 10 μM thioflavin T displaced
[13] = test system: PFOS_JYP_7 (DNA, aptamer) CTCTCGGGACGACCACCAGGTCTCGTCTTATTGGCTATGTGTTGTCGTCCC; assay: ThT displacement fluorescence, Hill fit; conditions: pH 7.5, RT, 70 min; 400 nM aptamer; 10 μM thioflavin T displaced
[14] = test system: PFOS_JYP_4 (DNA, aptamer) CTCTCGGGACGACGGGGGGCTATTTCTTCATTCTCTGCTGACTGTCGTCCC; assay: ThT displacement fluorescence, Hill fit; conditions: pH 7.5, RT, 70 min; 400 nM aptamer; 10 μM thioflavin T displaced
[15] = test system: PFOS_JYP_3 (DNA, aptamer) CTCTCGGGACGACGGGGGTTGCATCTTTATATGTTTCTTCTCTGTCGTCCC; assay: ThT displacement fluorescence, Hill fit; conditions: pH 7.5, RT, 70 min; 400 nM aptamer; 10 μM thioflavin T displaced
[16] = test system: 7T, 16T (DNA, aptamer) AACGGTTGATCTCCTCGTG; assay: ThT displacement fluorescence, Hill fit; conditions: pH 7.5, RT, 70 min; 400 nM aptamer; 10 μM thioflavin T displaced
[17] = test system: 10A (upper small loop without 10th adenine) (DNA, aptamer) AACGGTTTGTCTCCTTCGTG; assay: ThT displacement fluorescence, Hill fit; conditions: pH 7.5, RT, 70 min; 400 nM aptamer; 10 μM thioflavin T displaced
[18] = test system: PFOS_JYP_2 with flanking region shortened to 4 base pairs (DNA, aptamer) CGACGGGGTAACGGTTTGATCTCCTTCGTGTTCTGTCG; assay: ThT displacement fluorescence; conditions: different PFOS concentrations; highest not stated in material
[19] = test system: 11T, 16T (DNA, aptamer) AACGGTTTGACTCCTCGTG; assay: ThT displacement fluorescence, Hill fit; conditions: pH 7.5, RT, 70 min; 400 nM aptamer; 10 μM thioflavin T displaced
[20] = test system: 15C, 16T (DNA, aptamer) AACGGTTTGATCTCTCGTG; assay: ThT displacement fluorescence, Hill fit; conditions: pH 7.5, RT, 70 min; 400 nM aptamer; 10 μM thioflavin T displaced
[21] = test system: 16T (upper small loop without 16th thymine) (DNA, aptamer) AACGGTTTGATCTCCTCGTG; assay: ThT displacement fluorescence, Hill fit; conditions: pH 7.5, RT, 70 min; 400 nM aptamer; 10 μM thioflavin T displaced
[22] = test system: 11T (upper small loop without 11th thymine) (DNA, aptamer) AACGGTTTGACTCCTTCGTG; assay: ThT displacement fluorescence, Hill fit; conditions: pH 7.5, RT, 70 min; 400 nM aptamer; 10 μM thioflavin T displaced
[23] = test system: upper small loop of PFOS_JYP_2 (DNA, aptamer) AACGGTTTGATCTCCTTCGTG; assay: ThT displacement fluorescence, Hill fit; conditions: pH 7.5, RT, 70 min; 400 nM aptamer; 10 μM thioflavin T displaced
[24] = test system: PFOS_JYP_2 (DNA, aptamer) CTCTCGGGACGACGGGGTAACGGTTTGATCTCCTTCGTGTTCTGTCGTCCC; assay: ThT displacement fluorescence, Hill fit; conditions: pH 7.5, RT, 70 min; 400 nM aptamer; 10 μM thioflavin T displaced

- binding [1]: weak
- binding [2]: weak
Compound: O=C(O)C(F)(F)C(F)(F)C(F)(F)C(F)(F)C(F)(F)C(F)(F)C(F)(F)F

- binding [1]: weak
- binding [2]: weak
Compound: O=C(O)C(F)(F)C(F)(F)C(F)(F)C(F)(F)C(F)(F)C(F)(F)C(F)(F)C(F)(F)F

- binding [2]: no
Compound: O=S(=O)(O)C(F)(F)C(F)(F)C(F)(F)C(F)(F)F

- binding [2]: no
Compound: CCCCCCCCS(=O)(=O)O

- KD [3]: 7.69 ± 0.04 µM
- binding [4]: yes
- KD [5]: 18.23 ± 1.92 µM
- KD [6]: 7.99 ± 0.50 µM
- KD [7]: 8.86 ± 0.53 µM
- KD [8]: 7.35 ± 0.42 µM
- KD [9]: 7.57 ± 0.12 µM
- KD [10]: 8.19 ± 0.04 µM
- KD [11]: 7.33 ± 0.21 µM
- KD [12]: 6.93 ± 0.15 µM
- KD [13]: 8.42 ± 0.34 µM
- KD [14]: 6.87 ± 0.06 µM
- KD [15]: 7.82 ± 0.19 µM
- KD [16]: 7.97 ± 0.49 µM
- KD [17]: 8.30 ± 0.65 µM
- binding [18]: no
- KD [19]: 8.82 ± 0.37 µM
- KD [20]: 7.86 ± 0.18 µM
- KD [21]: 6.77 ± 0.16 µM
- KD [22]: 8.60 ± 0.27 µM
- KD [23]: 11.21 ± 0.16 µM
- KD [24]: 6.76 ± 0.20 µM
Compound: O=S(=O)(O)C(F)(F)C(F)(F)C(F)(F)C(F)(F)C(F)(F)C(F)(F)C(F)(F)C(F)(F)F

- binding [1]: weak
- binding [2]: weak
Compound: O=S(=O)(O)C(F)(F)C(F)(F)C(F)(F)C(F)(F)C(F)(F)C(F)(F)F

- binding [2]: no
Compound: O=C(O)C(F)(F)C(F)(F)C(F)(F)F

- binding [2]: weak
Compound: O=C(O)C(F)(F)C(F)(F)C(F)(F)C(F)(F)C(F)(F)C(F)(F)C(F)(F)C(F)(F)C(F)(F)F
